From patent US8895568B2, “Compositions comprising substituted pteridines as agrochemicals” (Dow AgroSciences LLC, priority 2009, dated 2014)

Experiments:
Assay type in all cases: in vivo
[1] = tested on: Pseudoperonospora cubensis; assay: Cucumber Downy Mildew (PSPECU), foliar spray, percent disease control; settings: foliar, read-out: PSPECU percent control
Protocol: The activity of the compounds as effective fungicides was determined by applying the compounds to plants and observing control of fungal disease. The compounds were formulated at 200 ppm in 10 vol. % acetone plus 90 vol. % Triton X water (deionized water 99.99 wt %+0.01 wt % Triton X100), giving a “formulated test compound.” In a few cases, compounds were formulated at 75 or 8.3 ppm rather than 200 ppm in 10 vol. % acetone plus 90 vol. % Triton X water (deionized water 99.99 wt. %+0.01 wt. % Triton X100), giving a “formulated test compound.” Formulated test compounds were applied to plants using a turn table sprayer fitted with two opposing air atomization nozzles which delivered approximately 1500 L/ha of spray volume. All plants were inoculated with spores of the fungus the day after treatment, then incubated in an environment conducive to disease development. Disease severity was evaluated 4 to 15 days later, depending on the disease and the speed of disease development. The following experiments were performed in the laboratory to determine the fungicidal efficacy of the compounds of the invention. Cucumber Downy Mildew (causal agent Pseudoperonospora cubensis; Bayer code […]): Cucumber plants (variety Bush Champion) were grown from seed in a soil-less peat-based potting mixture (Metromix) until the first true leaf was 20-80% expanded. Each pot contained 1 seedling. These plants were sprayed until wet with the formulated test compound. On the following day, the leaves were inoculated with an aqueous suspension of downy mildew sporangia and the plants were kept in high humidity for one day to permit sporangia to germinate and infect the leaf. The plants were then incubated in a growth chamber until disease developed on untreated control plants. […] The effectiveness of the test compounds at controlling disease when sprayed on leaves was determined by assessing the severity of disease on treated plants, then converting the severity to percent control based on the level of disease on untreated, inoculated plants. Data are the level (in percent) at which the given disease was controlled when the given compound was applied to the foliage of the plants at 200 ppm. In a few cases (noted in the table) the compound was applied to the plants at 75 ppm or 8.3 ppm.

Colletotricum lagenarium = assay: Cucumber Anthracnose (COLLLA), foliar spray, percent disease control; settings: foliar
Protocol: The activity of the compounds as effective fungicides was determined by applying the compounds to plants and observing control of fungal disease. The compounds were formulated at 200 ppm in 10 vol. % acetone plus 90 vol. % Triton X water (deionized water 99.99 wt %+0.01 wt % Triton X100), giving a “formulated test compound.” In a few cases, compounds were formulated at 75 or 8.3 ppm rather than 200 ppm in 10 vol. % acetone plus 90 vol. % Triton X water (deionized water 99.99 wt. %+0.01 wt. % Triton X100), giving a “formulated test compound.” Formulated test compounds were applied to plants using a turn table sprayer fitted with two opposing air atomization nozzles which delivered approximately 1500 L/ha of spray volume. All plants were inoculated with spores of the fungus the day after treatment, then incubated in an environment conducive to disease development. Disease severity was evaluated 4 to 15 days later, depending on the disease and the speed of disease development. The following experiments were performed in the laboratory to determine the fungicidal efficacy of the compounds of the invention. Cucumber Anthracnose (causal agent Colletotricum lagenarium; Bayer code COLLLA): Cucumber plants (variety Bush Champion) were grown from seed in a soil-less peat-based potting mixture (Metromix) until the first true leaf was 20-80% expanded. Each pot contained 1 seedling. These plants were sprayed until wet with the formulated test compound. On the following day, the leaves were inoculated with an aqueous spore suspension of Colletotricum lagenarium and the plants were kept in high humidity for one day to permit spores to germinate and infect the leaf. The plants were then transferred to a growth chamber until disease developed on untreated control plants. […] The effectiveness of the test compounds at controlling disease when sprayed on leaves was determined by assessing the severity of disease on treated plants, then converting the severity to percent control based on the level of disease on untreated, inoculated plants. Data are the level (in percent) at which the given disease was controlled when the given compound was applied to the foliage of the plants at 200 ppm. In a few cases (noted in the table) the compound was applied to the plants at 75 ppm or 8.3 ppm.

Cochliobolus sativus = assay: Spot Blotch of Wheat (COCHSA), foliar spray, percent disease control; settings: Bipolaris sorokiniana, foliar; read-out: COCHSA percent control

Compound | pest or weed control at 200 µg/mL [1] [%] | pest or weed control at 200 µg/mL (Colletotricum lagenarium) [%] | pest or weed control at 200 µg/mL (Cochliobolus sativus) [%]
c1ccc(COc2ccc(CCNc3ncnc4nccnc34)cc2)cc1 [Compound 1, [2-(4-Benzyloxyphenyl)-ethyl]-pteridin-4-yl-amine] | 80 to 100 | 80 to 100 | 50 to 79
FC(F)(F)c1ccnc(Oc2ccc(CCNc3ncnc4nccnc34)cc2)n1 [Compound 3] | 80 to 100 | 50 to 79 | 0 to 49
Oc1ccc(CCNc2ncnc3nccnc23)cc1 [Compound 4, 4-[2-(Pteridin-4-ylamino)-ethyl]-phenol] | 0 to 49 | 0 to 49 | 0 to 49
CC(Nc1ncnc2nccnc12)c1ccccc1 (stereo not drawn) [Compound 9] | 80 to 100 | 0 to 49 | 0 to 49
COc1ccnc(Oc2ccc(CCNc3ncnc4nccnc34)cc2)n1 [Compound 16] | 80 to 100 | 0 to 49 | 0 to 49
COc1ccc(C(C)Nc2ncnc3nccnc23)cc1 (stereo not drawn) [Compound 17] | 80 to 100 | 50 to 79 | 0 to 49
N#Cc1nccnc1Oc1ccc(CCNc2ncnc3nccnc23)cc1 [Compound 18] | 80 to 100 | 0 to 49 | 0 to 49
COc1ccc(C(C)Nc2nc(C)nc3nccnc23)cc1 (stereo not drawn) [Compound 19, [1-(4-Methoxyphenyl)ethyl]-2-methylpteridin-4-yl-amine] | 0 to 49 | 0 to 49 | 0 to 49
Oc1cccc(CCNc2ncnc3nccnc23)c1 [Compound 20] | 0 to 49 | 0 to 49 | 0 to 49
COc1nsc(Oc2ccc(CCNc3ncnc4nccnc34)cc2)n1 [Compound 21] | 50 to 79 | 50 to 79 | 0 to 49
c1ccc(-c2nsc(Oc3ccc(CCNc4ncnc5nccnc45)cc3)n2)cc1 [Compound 22] | 50 to 79 | 50 to 79 | 0 to 49
c1cc(-c2nnc(Oc3ccc(CCNc4ncnc5nccnc45)cc3)s2)ccn1 [Compound 23] | 0 to 49 | 0 to 49 | 0 to 49
Clc1nccc(Oc2ccc(CCNc3ncnc4nccnc34)cc2)n1 [Compound 24] | 80 to 100 | 50 to 79 | 0 to 49
CC(C)Cc1nnc(Oc2ccc(CCNc3ncnc4nccnc34)cc2)s1 [Compound 26] | 80 to 100 | 0 to 49 | 0 to 49
c1ccc(OCc2nnc(Oc3ccc(CCNc4ncnc5nccnc45)cc3)s2)cc1 [Compound 27] | 0 to 49 | 0 to 49 | 0 to 49
[O-][n+]1ccnc(Oc2ccc(CCNc3ncnc4nccnc34)cc2)c1 [Compound 29] | 80 to 100 | 0 to 49 | 0 to 49
Brc1nsc(Oc2ccc(CCNc3ncnc4nccnc34)cc2)n1 [Compound 33] | 0 to 49 | 0 to 49 | 0 to 49
N#Cc1c(Cl)cncc1Oc1ccc(CCNc2ncnc3nccnc23)cc1 [Compound 35] | 80 to 100 | 0 to 49 | 0 to 49
COc1cc(CCNc2ncnc3nccnc23)ccc1O [Compound 37] | 0 to 49 | 0 to 49 | 0 to 49

Compound | pest or weed control at 200 µg/mL [1] [%] | pest or weed control at 200 µg/mL (Colletotricum lagenarium) [%] | pest or weed control at 200 µg/mL (Cochliobolus sativus) [%]
Cc1cnc2ncnc(NCCc3ccc(O)cc3)c2n1 [Compound 38] | 0 to 49 | 0 to 49 | 0 to 49
FC(F)(F)c1ccnc(Oc2cccc(CCNc3ncnc4nccnc34)c2)c1 [Compound 46] | 80 to 100 | 80 to 100 | 0 to 49
FC(F)(F)c1ccc(Oc2cccc(CCNc3ncnc4nccnc34)c2)nc1 [Compound 47] | 80 to 100 | 50 to 79 | 0 to 49
FC(F)(F)c1ccnc(Cl)c1Oc1ccc(CCNc2ncnc3nccnc23)cc1 [Compound 56] | 50 to 79 | 0 to 49 | 0 to 49
COc1cc(CCNc2ncnc3nccnc23)ccc1Oc1cc(C#N)ccn1 [Compound 57] | 80 to 100 | 0 to 49 | 0 to 49
N#Cc1c(Cl)cccc1Oc1ccc(CCNc2ncnc3nccnc23)cc1 [Compound 61] | 80 to 100 | 0 to 49 | 0 to 49
COc1ccc(CCNc2ncnc3nccnc23)c(F)c1 [Compound 62] | 80 to 100 | 0 to 49 | 0 to 49
CON=C(C)c1ccnc(Oc2ccc(CCNc3ncnc4nccnc34)cc2)c1 [Compound 63] | 80 to 100 | 0 to 49 | 0 to 49
O=C(c1ccnc(Oc2ccc(CCNc3ncnc4nccnc34)cc2)c1)C1CC1 [Compound 64] | 80 to 100 | 0 to 49 | 0 to 49
CC(Nc1ncnc2nccnc12)c1ccc(O)cc1 (stereo not drawn) [Compound 65, 4-[1-(Pteridin-4-ylamino)-ethyl]-phenol] | 50 to 79 | 0 to 49 | 0 to 49
Cc1cc(C(F)(F)F)cc(Oc2ccc(CCNc3ncnc4nccnc34)cc2)n1 [Compound 69] | 80 to 100 | 80 to 100 | 0 to 49
Fc1cnc(C(F)(F)F)c(F)c1Oc1cccc(CCNc2ncnc3nccnc23)c1 [Compound 71] | 0 to 49 | 0 to 49 | 0 to 49
Fc1cnc(C(F)(F)F)c(F)c1Oc1ccc(CCNc2ncnc3nccnc23)cc1 [Compound 72] | 80 to 100 | 50 to 79 | 0 to 49
Oc1ccc(CCNc2ncnc3ncc(Cl)nc23)cc1 [Compound 73] | 0 to 49 | 0 to 49 | 0 to 49
Ic1ccnc(Oc2cccc(CCNc3ncnc4nccnc34)c2)c1 [Compound 74] | 80 to 100 | 0 to 49 | 0 to 49
FC(F)(F)c1cnccc1Oc1cccc(CCNc2ncnc3nccnc23)c1 [Compound 77] | 80 to 100 | 0 to 49 | 0 to 49
CC(Sc1ncnc2nccnc12)c1ccc(C#N)cc1 (stereo not drawn) [Compound 78] | 0 to 49 | 0 to 49 | 0 to 49
Oc1ccc(OCCNc2ncnc3nccnc23)cc1 [Compound 80] | 0 to 49 | 0 to 49 | 0 to 49
